Experimental data reported in the NIST ThermoML archive (doi:10.1016/j.fluid.2016.02.009).

Conditions: Liquid, Vibrating tube method

CC(C)OC(C)C [diisopropyl ether]
Conditions | mass density [kg/m3]
283.15 K, 100 kPa | 733.83
283.15 K, 5000 kPa | 739.6
283.15 K, 10000 kPa | 744.9
283.15 K, 15000 kPa | 749.85
283.15 K, 20000 kPa | 754.49
283.15 K, 25000 kPa | 758.89
283.15 K, 30000 kPa | 763.08
283.15 K, 35000 kPa | 767.08
283.15 K, 40000 kPa | 770.91
283.15 K, 45000 kPa | 774.59
283.15 K, 50000 kPa | 778.13
283.15 K, 55000 kPa | 781.56
283.15 K, 60000 kPa | 784.88
283.15 K, 65000 kPa | 788.07
288.15 K, 100 kPa | 728.69
288.15 K, 5000 kPa | 734.61
288.15 K, 10000 kPa | 740.14
288.15 K, 15000 kPa | 745.3
288.15 K, 20000 kPa | 750.09
288.15 K, 25000 kPa | 754.61
288.15 K, 30000 kPa | 758.9
288.15 K, 35000 kPa | 763.01
288.15 K, 40000 kPa | 766.92
288.15 K, 45000 kPa | 770.68
288.15 K, 50000 kPa | 774.31
288.15 K, 55000 kPa | 777.77
288.15 K, 60000 kPa | 781.16
288.15 K, 65000 kPa | 784.42
293.15 K, 100 kPa | 723.51
293.15 K, 5000 kPa | 729.62
293.15 K, 10000 kPa | 735.37
293.15 K, 15000 kPa | 740.69
293.15 K, 20000 kPa | 745.62
293.15 K, 25000 kPa | 750.29
293.15 K, 30000 kPa | 754.71
293.15 K, 35000 kPa | 758.91
293.15 K, 40000 kPa | 762.93
293.15 K, 45000 kPa | 766.78
293.15 K, 50000 kPa | 770.48
293.15 K, 55000 kPa | 774.06
293.15 K, 60000 kPa | 777.49
293.15 K, 65000 kPa | 780.83
298.15 K, 100 kPa | 718.29
298.15 K, 5000 kPa | 724.67
298.15 K, 10000 kPa | 730.59
298.15 K, 15000 kPa | 736.05
298.15 K, 20000 kPa | 741.13
298.15 K, 25000 kPa | 745.92
298.15 K, 30000 kPa | 750.46
298.15 K, 35000 kPa | 754.77
298.15 K, 40000 kPa | 758.89
298.15 K, 45000 kPa | 762.82
298.15 K, 50000 kPa | 766.6
298.15 K, 55000 kPa | 770.25
298.15 K, 60000 kPa | 773.75
298.15 K, 65000 kPa | 777.14
303.15 K, 100 kPa | 713.03
303.15 K, 5000 kPa | 719.61
303.15 K, 10000 kPa | 725.79
303.15 K, 15000 kPa | 731.48
303.15 K, 20000 kPa | 736.81
303.15 K, 25000 kPa | 741.76
303.15 K, 30000 kPa | 746.43
303.15 K, 35000 kPa | 750.85
303.15 K, 40000 kPa | 755.09
303.15 K, 45000 kPa | 759.12
303.15 K, 50000 kPa | 763
303.15 K, 55000 kPa | 766.7
303.15 K, 60000 kPa | 770.24
303.15 K, 65000 kPa | 773.7
308.15 K, 100 kPa | 707.73
308.15 K, 5000 kPa | 714.61
308.15 K, 10000 kPa | 720.99
308.15 K, 15000 kPa | 726.79
308.15 K, 20000 kPa | 732.2
308.15 K, 25000 kPa | 737.29
308.15 K, 30000 kPa | 742.07
308.15 K, 35000 kPa | 746.63
308.15 K, 40000 kPa | 750.94
308.15 K, 45000 kPa | 755.05
308.15 K, 50000 kPa | 759.01
308.15 K, 55000 kPa | 762.79
308.15 K, 60000 kPa | 766.45
308.15 K, 65000 kPa | 769.97
313.15 K, 100 kPa | 702.38
313.15 K, 5000 kPa | 709.64
313.15 K, 10000 kPa | 716.16
313.15 K, 15000 kPa | 722.17
313.15 K, 20000 kPa | 727.77
313.15 K, 25000 kPa | 732.97
313.15 K, 30000 kPa | 737.92
313.15 K, 35000 kPa | 742.55
313.15 K, 40000 kPa | 746.98
313.15 K, 45000 kPa | 751.2
313.15 K, 50000 kPa | 755.21
313.15 K, 55000 kPa | 759.09
313.15 K, 60000 kPa | 762.83
313.15 K, 65000 kPa | 766.39
318.15 K, 100 kPa | 697.07
318.15 K, 5000 kPa | 704.53
318.15 K, 10000 kPa | 711.3
318.15 K, 15000 kPa | 717.51
318.15 K, 20000 kPa | 723.27
318.15 K, 25000 kPa | 728.67
318.15 K, 30000 kPa | 733.74
318.15 K, 35000 kPa | 738.49
318.15 K, 40000 kPa | 743.01
318.15 K, 45000 kPa | 747.34
318.15 K, 50000 kPa | 751.47
318.15 K, 55000 kPa | 755.41
318.15 K, 60000 kPa | 759.21
318.15 K, 65000 kPa | 762.85
323.15 K, 100 kPa | 691.61
323.15 K, 5000 kPa | 699.42
323.15 K, 10000 kPa | 706.46
323.15 K, 15000 kPa | 712.89
323.15 K, 20000 kPa | 718.83
323.15 K, 25000 kPa | 724.38
323.15 K, 30000 kPa | 729.58
323.15 K, 35000 kPa | 734.45
323.15 K, 40000 kPa | 739.08
323.15 K, 45000 kPa | 743.5
323.15 K, 50000 kPa | 747.72
323.15 K, 55000 kPa | 751.72
323.15 K, 60000 kPa | 755.59
323.15 K, 65000 kPa | 759.26
328.15 K, 100 kPa | 686.17
328.15 K, 5000 kPa | 694.18
328.15 K, 10000 kPa | 701.52
328.15 K, 15000 kPa | 708.19
328.15 K, 20000 kPa | 714.34
328.15 K, 25000 kPa | 720.04
328.15 K, 30000 kPa | 725.37
328.15 K, 35000 kPa | 730.4
328.15 K, 40000 kPa | 735.15
328.15 K, 45000 kPa | 739.67
328.15 K, 50000 kPa | 743.94
328.15 K, 55000 kPa | 748.05
328.15 K, 60000 kPa | 751.94
328.15 K, 65000 kPa | 755.64
333.15 K, 100 kPa | 681
333.15 K, 5000 kPa | 688.97
333.15 K, 10000 kPa | 696.58
333.15 K, 15000 kPa | 703.52
333.15 K, 20000 kPa | 709.85
333.15 K, 25000 kPa | 715.73
333.15 K, 30000 kPa | 721.21
333.15 K, 35000 kPa | 726.36
333.15 K, 40000 kPa | 731.23
333.15 K, 45000 kPa | 735.85
333.15 K, 50000 kPa | 740.18
333.15 K, 55000 kPa | 744.38
333.15 K, 60000 kPa | 748.24
333.15 K, 65000 kPa | 752.02
